Assay results: ChEMBL document CHEMBL4052712, “Design and optimization of highly-selective, broad spectrum fungal CYP51 inhibitors” (Bioorg Med Chem Lett, 2017)

What was measured:
Cytochrome P450 3A4 = Cytochrome P450 3A4 (Homo sapiens, UniProt P08684); assay: Inhibition of CYP3A4 in human hepatocyte microsomes using testosterone substrate by HPLC/MS/MS method; type: ADME
[1] = target: T1, Cytochrome P450 11B1, mitochondrial (Homo sapiens, UniProt P15538); assay: Inhibition of CYP11B1 in human hepatocyte microsomes using deoxycortisol substrate by HPLC/MS/MS method; type: ADME
T1 sequence (P15538 whole entry): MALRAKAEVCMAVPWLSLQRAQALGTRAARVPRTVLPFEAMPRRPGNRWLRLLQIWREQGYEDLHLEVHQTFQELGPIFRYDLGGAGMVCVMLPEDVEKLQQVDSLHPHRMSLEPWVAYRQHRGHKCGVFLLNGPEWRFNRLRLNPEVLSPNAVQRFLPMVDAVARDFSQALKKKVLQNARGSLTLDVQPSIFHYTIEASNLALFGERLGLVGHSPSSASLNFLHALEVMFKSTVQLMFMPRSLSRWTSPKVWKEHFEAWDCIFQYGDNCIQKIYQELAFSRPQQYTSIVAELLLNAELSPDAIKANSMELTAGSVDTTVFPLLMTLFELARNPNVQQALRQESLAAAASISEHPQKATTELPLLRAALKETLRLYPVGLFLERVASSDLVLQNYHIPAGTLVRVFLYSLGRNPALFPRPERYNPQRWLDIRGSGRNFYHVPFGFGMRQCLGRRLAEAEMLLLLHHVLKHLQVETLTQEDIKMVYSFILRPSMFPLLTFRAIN

[2] = target: T2, Lanosterol 14-alpha demethylase (Aspergillus, UniProt B8NUK6+G4WW85+Q9P8R0); assay: Binding affinity to Aspergillus fumigatus CYP51
T2 sequence (B8NUK6 whole entry): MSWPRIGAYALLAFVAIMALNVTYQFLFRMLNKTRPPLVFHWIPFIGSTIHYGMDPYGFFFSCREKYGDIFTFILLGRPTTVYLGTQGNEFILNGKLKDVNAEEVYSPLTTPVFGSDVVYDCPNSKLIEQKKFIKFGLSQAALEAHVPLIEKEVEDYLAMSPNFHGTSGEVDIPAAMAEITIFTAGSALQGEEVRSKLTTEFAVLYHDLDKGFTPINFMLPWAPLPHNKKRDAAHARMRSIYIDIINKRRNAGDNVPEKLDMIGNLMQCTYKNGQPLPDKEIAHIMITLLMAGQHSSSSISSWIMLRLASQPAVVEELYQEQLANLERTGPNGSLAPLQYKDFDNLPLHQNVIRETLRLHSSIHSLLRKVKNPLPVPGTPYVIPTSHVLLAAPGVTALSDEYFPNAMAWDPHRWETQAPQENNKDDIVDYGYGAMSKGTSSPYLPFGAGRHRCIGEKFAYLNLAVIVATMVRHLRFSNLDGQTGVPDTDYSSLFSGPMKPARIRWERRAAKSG
T2 sequence (Q9P8R0 whole entry): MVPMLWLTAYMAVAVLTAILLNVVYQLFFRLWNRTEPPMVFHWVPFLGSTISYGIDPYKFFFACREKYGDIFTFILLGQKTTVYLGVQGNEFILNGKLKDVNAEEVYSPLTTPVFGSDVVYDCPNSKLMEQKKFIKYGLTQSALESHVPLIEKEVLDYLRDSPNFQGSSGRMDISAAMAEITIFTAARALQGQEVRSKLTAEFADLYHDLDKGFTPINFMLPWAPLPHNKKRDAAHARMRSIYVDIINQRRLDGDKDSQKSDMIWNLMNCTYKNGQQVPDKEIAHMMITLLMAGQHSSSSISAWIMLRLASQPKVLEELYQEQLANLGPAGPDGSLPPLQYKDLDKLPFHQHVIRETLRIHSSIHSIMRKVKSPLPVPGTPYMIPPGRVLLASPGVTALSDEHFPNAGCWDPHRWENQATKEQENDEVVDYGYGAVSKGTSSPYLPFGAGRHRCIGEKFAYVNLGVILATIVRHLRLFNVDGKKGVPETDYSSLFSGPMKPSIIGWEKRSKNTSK
T2 sequence (G4WW85 whole entry): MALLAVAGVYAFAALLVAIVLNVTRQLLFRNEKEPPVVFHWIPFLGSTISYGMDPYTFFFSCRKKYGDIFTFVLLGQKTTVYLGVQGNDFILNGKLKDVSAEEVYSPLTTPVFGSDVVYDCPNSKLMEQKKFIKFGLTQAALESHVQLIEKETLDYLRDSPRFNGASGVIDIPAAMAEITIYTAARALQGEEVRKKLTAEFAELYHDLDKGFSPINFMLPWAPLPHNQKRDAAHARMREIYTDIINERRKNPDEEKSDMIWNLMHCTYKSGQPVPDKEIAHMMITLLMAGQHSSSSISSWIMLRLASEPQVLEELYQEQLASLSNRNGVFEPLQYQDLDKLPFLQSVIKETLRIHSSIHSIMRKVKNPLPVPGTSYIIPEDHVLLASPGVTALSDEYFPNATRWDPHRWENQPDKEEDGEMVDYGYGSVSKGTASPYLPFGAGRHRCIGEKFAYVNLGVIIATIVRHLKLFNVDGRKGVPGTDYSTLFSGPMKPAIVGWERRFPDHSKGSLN

[3] = Tmax in Swiss albino mouse at 5 mg/kg, po measured during 0.5 to 48 hrs post dose by HPLC/MS/MS method; type: ADME, organism-based; conditions: in vivo
[4] = Cmax in Swiss albino mouse at 5 mg/kg, po measured during 0.5 to 48 hrs post dose by HPLC/MS/MS method; type: ADME, organism-based; set-up: dose 5 mg/kg, route oral; conditions: in vivo
[5] = AUClast in Swiss albino mouse at 5 mg/kg, po measured during 0.5 to 48 hrs post dose by HPLC/MS/MS method; type: ADME, organism-based; set-up: dose 5 mg/kg, route oral, time 0 - last; conditions: in vivo
Kidney = assay: Drug level in Swiss albino mouse kidney at 5 mg/kg, po after 48 hrs assessed as relative AUC (48 hrs) level relative to plasma drug level by HPLC/MS/MS method; type: ADME, organism-based; conditions: other tissue
Lung = assay: Drug level in Swiss albino mouse lung at 5 mg/kg, po after 48 hrs assessed as relative AUC (48 hrs) level relative to plasma drug level by HPLC/MS/MS method; type: ADME, organism-based; conditions: other tissue
[6] = Half life in Swiss albino mouse brain at 5 mg/kg, po measured during 0.5 to 48 hrs post dose by HPLC/MS/MS method; type: ADME, organism-based

Cytochrome P450 3A4, sequence (P08684 whole entry): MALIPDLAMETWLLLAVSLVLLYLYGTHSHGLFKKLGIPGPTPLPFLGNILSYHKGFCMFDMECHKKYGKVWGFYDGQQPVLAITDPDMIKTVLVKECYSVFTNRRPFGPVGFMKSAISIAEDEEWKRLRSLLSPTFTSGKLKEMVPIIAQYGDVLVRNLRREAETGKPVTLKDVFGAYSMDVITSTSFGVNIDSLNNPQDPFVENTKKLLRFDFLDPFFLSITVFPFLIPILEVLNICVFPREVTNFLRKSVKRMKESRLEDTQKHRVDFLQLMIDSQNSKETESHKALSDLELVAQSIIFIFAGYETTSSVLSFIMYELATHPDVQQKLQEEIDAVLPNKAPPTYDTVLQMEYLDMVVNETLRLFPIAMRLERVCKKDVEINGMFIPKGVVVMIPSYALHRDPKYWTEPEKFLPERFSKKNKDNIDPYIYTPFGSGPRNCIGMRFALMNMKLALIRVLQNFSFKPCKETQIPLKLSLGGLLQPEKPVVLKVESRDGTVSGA

IC50 (Cytochrome P450 3A4): > 200 µM
IC50 [1]: > 100 µM
Kd [2]: 0.013 µM
Tmax [3]: 4 h
Cmax [4]: 2500 ng/mL
AUC(0-t) [5]: 67000 ng·h/mL
Drug uptake (Kidney): 268%
Drug uptake (Lung): 94%
half-life [6]: 16 to 19 h
SMILES: N#Cc1ccc(COc2ccc(C#Cc3ccc(C(F)(F)C(O)(Cn4cnnn4)c4ccc(F)cc4F)nc3)cc2)cc1 (single isomer, unassigned; (+))
